Data: patent publication US20220151229A1, “Synergistic Herbicidal Combinations” (Clariant International Ltd., priority 2019, published 2022)

Key:
Type in all cases: in vivo
[1] = tested on: Solanum nigrum - SOLNI; test: Greenhouse post-emergence herbicide trial, Solanum nigrum; conditions: Iodosulfuron-methyl-sodium 10 g Al/ha
Description: (§1) Standard post emergence herbicide application procedures were used, as described below, to apply inventive compounds in combination with sulfonylurea herbicides.
(§2) Seed of monocotyledonous and dicotyledonous harmful plants such as Brassica napus (BRSNW) Abutilon theophrasti (ABUTH), Alopecurus myosuroides (ALOMY), Amaranthus retroflexus (AMARE), Digitaria Sanguinalis (DIGSA), Echinochloa crus-galli (ECHCG), Erigeron canadensis (ERICA), Galium aparine (GALAP), Lolium perenne (LOLPE), Sectaria viridis (SETVI), Solanun nigrum (SOLNI), Viola arvensis (VIOAR) were sowed in 18 cm^2 pots. The plants were placed in a greenhouse under controlled environmental conditions, and sub-irrigation. About one week after emergence, seedlings were thinned as needed, including removal of any unhealthy or abnormal plants, to create a uniform series of test pots.
(§3) The plants were maintained for the duration of the test in the greenhouse, where they received a mean of 70 μmol m-2 s-1 of light per day/night. Temperatures averages about 24° C. during the day and about 20° C. during the night. Plants were sub-irrigated throughout the test to ensure adequate soil moisture levels.
(§4) Pots were assigned to different treatment in a randomized experimental design. A set of pots was left untreated as a reference against which effects of the treatments could later be evaluated. Application of tested formulations was made in a spray cabin model 01S-15E designed by CheckTec using the following parameters: • Two edge nozzle Lechler OC2, 200 L/ha, 3 bars. • Two edge nozzle Lechler OC3, 500 L/ha, 3 bars.
(§5) The distance of the nozzle from the plants was between 50 to 53 cm. and the nozzle spacing was 50 cm.
(§6) After treatment, pots were returned to the greenhouse until ready for evaluation. Evaluations were performed at different times after application (DAT: days after treatment), depending on the experiment.
(§7) For evaluation of herbicidal effectiveness, all plants in the test were examined by a single technician, who recorded percent control, a visual measurement of the effectiveness of each treatment by comparison with untreated plants. […] The reported % control values represent the average for all replicates of each treatment.
(§8) Iodosulfuron-methyl-sodium and Nicosulfuron were applied as dilutions of the active ingredient in water.

[2] = tested on: Lolium perenne - LOLPE; test: Greenhouse post-emergence herbicide trial, Lolium perenne; conditions: 200 L/ha, Iodosulfuron-methyl-sodium 10 g Al/ha
Description: as §1, §2, §3, §4, §5, §6, §7, §8

[3] = tested on: Brassica napus - BRSNW; test: Greenhouse post-emergence herbicide trial, Brassica napus; conditions: 200 L/ha, Iodosulfuron-methyl-sodium 10 g Al/ha
Description: as §1, §2, §3, §4, §5, §6, §7, §8

COC(=O)c1ccc(I)cc1S(=O)(=O)[N-]C(=O)Nc1nc(C)nc(OC)n1.[Na+] [Iodosulfuron-methyl-sodium, reference compound]
Effectiveness control ([1]; 200 L/ha, 1 DAT): 0.00%
Effectiveness control ([1]; 200 L/ha, 2 DAT): 0.00%
Effectiveness control ([1]; 200 L/ha, 7 DAT): 0.00%
Effectiveness control ([1]; 200 L/ha, 15 DAT): 12.50%
Effectiveness control ([1]; 200 L/ha, 21 DAT): 13.75%
Effectiveness control ([1]; 500 L/ha, 1 DAT): 0.00%
Effectiveness control ([1]; 500 L/ha, 2 DAT): 0.000%
Effectiveness control ([1]; 500 L/ha, 7 DAT): 5.00%
Effectiveness control ([1]; 500 L/ha, 15 DAT): 25.00%
Effectiveness control ([1]; 500 L/ha, 21 DAT): 47.50%
Effectiveness control ([2]; 1 DAT): 0.00%
Effectiveness control ([2]; 2 DAT): 0.00%
Effectiveness control ([2]; 7 DAT): 0.00%
Effectiveness control ([2]; 10 DAT): 0.00%
Effectiveness control ([2]; 16 DAT): 0.00%
Effectiveness control ([2]; 22 DAT): 0.00%
Effectiveness control ([2]; 28 DAT): 0.00%
Effectiveness control ([3]; 1 DAT): 0.00%
Effectiveness control ([3]; 2 DAT): 0.00%
Effectiveness control ([3]; 7 DAT): 6.75%
Effectiveness control ([3]; 10 DAT): 8.50%
Effectiveness control ([3]; 16 DAT): 50.75%
Effectiveness control ([3]; 22 DAT): 99.00%
Effectiveness control ([3]; 28 DAT): 99.00%
